Assays:
[1] = target: Tyrosine-protein kinase JAK1 (Homo sapiens, UniProt P23458); assay: (§1) JAK1 Inhibition Assay: Compounds of Formula I were screened for their ability to inhibit JAK1 using the general enzyme inhibition assay method, in which the assay mixture contained 1 mM ATP, 8 μM Omnia Y12 peptide (Catalog # IVGN KPZ3121C; Invitrogen Corporation, Carlsbad, Calif.) and 12.5 nM JAK1 in a total volume of 25 μL. JAK1 was purchased from Invitrogen Corporation, Carlsbad, Calif. (catalog # IVGN PV4775).
[2] = target: Tyrosine-protein kinase JAK2 (Homo sapiens, UniProt O60674); assay: as §1, with “JAK2” for “JAK1”, “10” for “8”, “Y7” for “Y12”, “KNZ3071C,” for “KPZ3121C;”, “4” for “12.5”, “PV4288).” for “PV4775).”
Sequence of Tyrosine-protein kinase JAK2 (O60674 whole entry): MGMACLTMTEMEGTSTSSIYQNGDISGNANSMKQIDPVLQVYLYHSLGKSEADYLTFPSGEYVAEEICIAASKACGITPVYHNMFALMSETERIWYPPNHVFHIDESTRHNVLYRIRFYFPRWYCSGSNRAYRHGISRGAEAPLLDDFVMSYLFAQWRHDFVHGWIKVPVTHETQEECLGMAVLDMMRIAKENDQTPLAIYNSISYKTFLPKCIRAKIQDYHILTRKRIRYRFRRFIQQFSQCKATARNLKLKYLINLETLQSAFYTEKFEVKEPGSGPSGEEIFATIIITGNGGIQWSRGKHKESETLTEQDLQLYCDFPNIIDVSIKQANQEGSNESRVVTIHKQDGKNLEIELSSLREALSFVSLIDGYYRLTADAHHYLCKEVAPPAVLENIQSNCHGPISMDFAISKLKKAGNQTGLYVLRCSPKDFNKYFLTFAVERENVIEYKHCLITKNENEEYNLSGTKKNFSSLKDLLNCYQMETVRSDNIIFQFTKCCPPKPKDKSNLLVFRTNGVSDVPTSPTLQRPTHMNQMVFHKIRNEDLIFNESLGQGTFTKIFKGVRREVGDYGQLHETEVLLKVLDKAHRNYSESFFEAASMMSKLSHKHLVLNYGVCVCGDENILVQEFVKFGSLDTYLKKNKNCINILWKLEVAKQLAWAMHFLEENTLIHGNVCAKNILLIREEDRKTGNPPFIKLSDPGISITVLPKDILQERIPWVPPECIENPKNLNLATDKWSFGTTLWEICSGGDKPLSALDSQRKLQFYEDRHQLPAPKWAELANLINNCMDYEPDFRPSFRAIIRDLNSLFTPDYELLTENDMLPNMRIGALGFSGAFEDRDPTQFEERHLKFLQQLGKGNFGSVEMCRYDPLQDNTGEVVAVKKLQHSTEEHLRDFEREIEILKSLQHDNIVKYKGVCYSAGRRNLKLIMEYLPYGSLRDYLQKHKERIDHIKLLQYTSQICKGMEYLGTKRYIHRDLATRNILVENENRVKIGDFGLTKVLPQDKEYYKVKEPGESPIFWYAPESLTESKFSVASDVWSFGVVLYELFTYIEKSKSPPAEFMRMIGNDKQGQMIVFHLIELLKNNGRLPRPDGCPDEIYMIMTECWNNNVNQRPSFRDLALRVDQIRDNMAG

Sequence of Tyrosine-protein kinase JAK1 (P23458 whole entry): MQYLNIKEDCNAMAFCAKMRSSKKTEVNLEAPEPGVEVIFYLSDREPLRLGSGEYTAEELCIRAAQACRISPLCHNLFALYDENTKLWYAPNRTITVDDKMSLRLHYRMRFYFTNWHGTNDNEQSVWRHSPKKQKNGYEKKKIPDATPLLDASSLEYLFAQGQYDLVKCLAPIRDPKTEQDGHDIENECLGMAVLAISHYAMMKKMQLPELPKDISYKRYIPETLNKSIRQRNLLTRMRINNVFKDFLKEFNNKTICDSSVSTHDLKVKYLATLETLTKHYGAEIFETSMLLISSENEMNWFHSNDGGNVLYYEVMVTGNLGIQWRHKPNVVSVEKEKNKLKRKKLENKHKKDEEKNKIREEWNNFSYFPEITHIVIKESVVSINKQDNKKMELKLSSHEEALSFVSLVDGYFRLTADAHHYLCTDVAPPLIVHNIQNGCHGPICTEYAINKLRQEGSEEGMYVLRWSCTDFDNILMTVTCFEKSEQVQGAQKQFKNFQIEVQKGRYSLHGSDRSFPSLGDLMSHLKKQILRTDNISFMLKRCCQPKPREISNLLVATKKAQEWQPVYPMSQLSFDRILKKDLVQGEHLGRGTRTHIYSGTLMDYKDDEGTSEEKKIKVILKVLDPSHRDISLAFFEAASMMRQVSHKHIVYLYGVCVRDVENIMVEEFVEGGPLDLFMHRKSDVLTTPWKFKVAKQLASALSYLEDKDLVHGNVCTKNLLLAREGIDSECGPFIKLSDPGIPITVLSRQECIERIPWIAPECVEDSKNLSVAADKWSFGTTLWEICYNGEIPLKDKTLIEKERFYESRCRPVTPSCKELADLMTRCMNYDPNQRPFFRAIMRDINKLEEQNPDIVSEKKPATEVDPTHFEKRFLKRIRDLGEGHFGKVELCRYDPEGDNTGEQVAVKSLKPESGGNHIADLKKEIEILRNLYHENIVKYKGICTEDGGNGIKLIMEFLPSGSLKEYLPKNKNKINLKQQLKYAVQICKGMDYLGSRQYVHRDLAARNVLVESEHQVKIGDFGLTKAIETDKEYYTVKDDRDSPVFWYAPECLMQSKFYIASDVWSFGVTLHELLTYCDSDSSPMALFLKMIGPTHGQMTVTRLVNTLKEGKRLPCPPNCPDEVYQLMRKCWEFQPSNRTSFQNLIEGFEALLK

| IC50 [1] | IC50 [2] | SMILES |
| --- | --- | --- |
| in the range around 5.5 µM | – | CCC(CC)n1cc(-c2nc(-c3cnn([C@H]4C[C@@](O)(CO)C4)c3)cn3nccc23)cn1 |
| – | < 0.01 µM | CCC(CC)n1cc(-c2nc(-c3cnn([C@H]4C[C@@H](O)[C@@H](O)C4)c3)cn3nccc23)cn1 |

Source: ChEMBL document CHEMBL5727865, “4,6-substituted-pyrazolo[1,5-a]pyrazines as Janus kinase inhibitors” (2020)
